Data set [1] has as its target T1, human AR (Homo sapiens, UniProt P10275).
T1 construct: expressed in transfected cells; host or cells: COS-1
T1 sequence (P10275 1-920): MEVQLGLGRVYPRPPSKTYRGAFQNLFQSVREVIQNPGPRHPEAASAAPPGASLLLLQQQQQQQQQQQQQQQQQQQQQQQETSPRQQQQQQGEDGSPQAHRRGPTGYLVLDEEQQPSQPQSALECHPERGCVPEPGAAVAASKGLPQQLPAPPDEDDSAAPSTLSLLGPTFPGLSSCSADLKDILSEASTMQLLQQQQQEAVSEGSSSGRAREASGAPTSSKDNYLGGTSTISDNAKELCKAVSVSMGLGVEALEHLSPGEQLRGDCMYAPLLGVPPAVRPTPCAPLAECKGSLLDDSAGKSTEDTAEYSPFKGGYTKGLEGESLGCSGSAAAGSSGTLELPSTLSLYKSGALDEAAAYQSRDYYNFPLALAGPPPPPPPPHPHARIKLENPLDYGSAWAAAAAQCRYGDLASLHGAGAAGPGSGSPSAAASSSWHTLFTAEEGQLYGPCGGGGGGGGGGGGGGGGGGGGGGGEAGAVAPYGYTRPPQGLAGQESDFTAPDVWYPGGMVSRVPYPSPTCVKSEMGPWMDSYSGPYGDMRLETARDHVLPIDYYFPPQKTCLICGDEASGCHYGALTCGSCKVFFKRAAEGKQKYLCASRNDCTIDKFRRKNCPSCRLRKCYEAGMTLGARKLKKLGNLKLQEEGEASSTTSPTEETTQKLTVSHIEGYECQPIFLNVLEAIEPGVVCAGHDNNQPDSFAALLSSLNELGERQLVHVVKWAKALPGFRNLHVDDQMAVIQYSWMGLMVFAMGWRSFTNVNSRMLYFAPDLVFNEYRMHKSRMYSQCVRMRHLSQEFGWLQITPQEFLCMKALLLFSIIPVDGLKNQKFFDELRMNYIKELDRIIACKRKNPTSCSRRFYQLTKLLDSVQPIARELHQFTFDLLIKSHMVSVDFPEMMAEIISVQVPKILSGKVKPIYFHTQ
Nature of the data set: Competitive AR binding assay against [3H]-R1881 in transiently transfected COS-1 cells. Conditions: compound 13.4 μM, [3H]-R1881 1.34 nM, complete inhibition equals 100%; for inhibition at 13.4 µM: read-out: Inhibition of [3H]-R1881 binding at 1.34 nM ± S.D. The gist of the method:
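COS-1 cells transfected 24 h with human AR vector, then after 36 h exposed 2 h at 37° C to compound at 10000-fold molar excess over 1.34 nM [3H]-R1881. Cell-bound radioactivity counted in triplicate; result given as % inhibition of labelled R1881 binding.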

Data set [2] addresses T1, human AR. Nature of the data set: AR antagonism assay: inhibition of transcriptional activation of AR (Probasin-luc reporter, COS-1 cells). Conditions: compound 10.0 μM, relative luciferase response: 100% for testosterone (no antiandrogenic effect), 0% for complete antagonism. The class given is cell-based. The gist of the method: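 COS-1 cells transfected 24 h with human AR vector, Probasin-luc reporter and β-gal control, then exposed 18 h at 37 °C to 10 μM compound plus 100 nM testosterone. Luciferase read-out normalised to β-galactosidase activity and protein content.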

In general, inhibition refers to how much of the control response was suppressed. The term melting point denotes the temperature, or range, at which the solid turns liquid.

Read-outs that look alike come from different tables or passages of the source.

For the compound `COc1ccc(C2=NOC(C)(Cc3ccccc3)C2)cc1` (centres unmarked) [Example 3ab, 5-Benzyl-3-(4-methoxyphenyl)-5-methyl-4,5-dihydro-isoxazole], the melting point was 97.8 to 98.6 °C. The inhibition at 13.4 µM in data set [1] (Table 1) was 49.6 ± 2%.

On to `CC1(Cc2ccccc2)CC(c2ccc3ccccc3c2)=NO1` (centres unmarked) [Example 9ab, 5-Benzyl-3-naphthalen-2-yl-5-methyl-4,5-dihydro-isoxazole], for which the melting point lay within 144.8 to 146.3 °C. The inhibition at 13.4 µM in data set [1] (Table 1) turned out to be 63.7 ± 1.5%.

As to `COc1ccccc1C1=NOC(Cc2ccccc2)(c2ccccc2)C1` (centres unmarked) [Example 12, 5-Benzyl-3-(2-methoxyphenyl)-5-phenyl-4,5-dihydro-isoxazole], the melting point is 109.3 to 110.2 °C.

`COc1cccc(C2=NOC(Cc3ccccc3)(c3ccccc3)C2)c1` (centres unmarked) [Example 13, 5-Benzyl-5-phenyl-3-(3-methoxyphenyl)-4,5-dihydro-isoxazole] had a melting point of 94.4 to 95.2 °C.

As for `COc1ccc(C2=NOC(Cc3ccccc3)(c3ccccc3)C2)cc1` (centres unmarked) [Example 14, 5-Benzyl-3-(4-methoxyphenyl)-5-phenyl-4,5-dihydro-isoxazole], the melting point was 139.3 to 141 °C.

`Fc1ccccc1C1=NOC(Cc2ccccc2)(c2ccccc2)C1` (centres unmarked) [Example 15ab, 5-Benzyl-3-(2-fluorophenyl)-5-phenyl-4,5-dihydro-isoxazole] showed a melting point of 134.3 to 135.2 °C. The inhibition at 13.4 µM in data set [1] (Table 1) stood at 49.5 ± 4.3%.

`Clc1ccc(C2=NOC(Cc3ccccc3)(c3ccccc3)C2)cc1` (centres unmarked) [Example 16, 5-Benzyl-3-(4-chlorophenyl)-5-phenyl-4,5-dihydro-isoxazole]: the melting point lay in the range of 120.3 to 122.1 °C.

Turning to `O=[N+]([O-])c1ccc(C2=NOC(Cc3ccccc3)(c3ccccc3)C2)cc1` (centres unmarked) [Example 17, 5-Benzyl-3-(4-nitrophenyl)-5-phenyl-4,5-dihydro-isoxazole], the melting point lay in the range of 158 to 159.2 °C.

As for `N#Cc1ccc(C2=NOC(Cc3ccccc3)(c3ccccc3)C2)cc1` (centres unmarked) [Example 18, 4-(5-Benzyl-5-phenyl-4,5-dihydro-isoxazol-3-yl)-benzonitrile], the melting point lay in the range of 104.5 to 107 °C.

`Oc1ccc(C2=NOC(Cc3ccccc3)(c3ccccc3)C2)cc1` (centres unmarked) [Example 80, 5-Benzyl-3-(4-hydroxyphenyl)-5-phenyl-4,5-dihydro-isoxazole] had a melting point of 151.3 to 153.9 °C.

In the case of `N#Cc1cccc(C2=NOC3CCCCCC23)c1C(F)(F)F` (centres unmarked) [Example 95a, 3-(4,5,6,7,8,8a-Hexahydro-3aH-cyclohepta[d]isoxazol-3-yl)-2-trifluoromethyl-benzonitrile], the inhibition at 13.4 µM in data set [1] (Table 3) worked out at 96.2 ± 0.8%. In addition, the remaining activity at 10 µM in data set [2] (COS-1, 18 h, read-out: AR antagonism against 100 nM testosterone ± S.D.) was found to be 14.4 ± 1.9%.

For `N#Cc1cccc(C2=NOC3CCCCCC23)c1C(F)(F)F` (centres unmarked) [Example 95b, 3-(4,5,6,7,8,8a-Hexahydro-3aH-cyclohepta[d]isoxazol-3-yl)-2-trifluoromethyl-benzonitrile], in data set [1] (Table 3), the “Inhibition of [3H]-R1881 binding at 1.34 nM ± S.D.” value worked out at 98.1 ± 0.3%. The “AR antagonism against 100 nM testosterone ± S.D.” value in data set [2] is given as 19.2 ± 2.9%.
